Assay [1] addresses T1, MMP-1 (Homo sapiens, UniProt P03956).
T1 construct: The methods employ Human rheumatoid synovial fibroblast (MMP-1); endogenous in cells; host or cells: Human rheumatoid synovial fibroblast
T1 sequence (P03956 100-469): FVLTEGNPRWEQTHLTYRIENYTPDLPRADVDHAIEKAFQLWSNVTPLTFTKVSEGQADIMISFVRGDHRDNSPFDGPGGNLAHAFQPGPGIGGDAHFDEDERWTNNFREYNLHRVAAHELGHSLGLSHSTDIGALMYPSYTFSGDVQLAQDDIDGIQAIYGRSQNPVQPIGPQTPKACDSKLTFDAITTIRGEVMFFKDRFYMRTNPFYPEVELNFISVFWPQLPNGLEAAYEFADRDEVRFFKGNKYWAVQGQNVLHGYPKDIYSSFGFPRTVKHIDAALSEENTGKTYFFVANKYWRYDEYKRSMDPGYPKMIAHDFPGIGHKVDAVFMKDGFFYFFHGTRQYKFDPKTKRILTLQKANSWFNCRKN
Description: MMP enzyme assay (fluorogenic Mca peptide substrate, MDS Pharma Services). It counts as biochemical. As to conditions: concentration giving 50 % inhibition; MMP-1 from Human rheumatoid synovial fibroblast; read-out: Concentration of Pemirolast. As to the method:
(§1) The inhibitory effect of Pemirolast on human MMP's and cytokines were determined by enzyme assays carried out by MDS Pharma Services.
(§2) The inhibition of MMP's can be determined according to the test methods described by Knight CG, Willenbrock F, Murphy G (A novel coumarin-labelled peptide for sensitive continuous assays of the matrix metalloproteinases, FEBS Lett. 1992 Jan 27;296(3):263-6); Johnson LL, Dyer R, Hupe DJ (Matrix metalloproteinases, Curr Opin Chem Biol. 1998 Aug;2(4):466-71); and Olson MW, Gervasi DC, Mobashery S, Fridman R (Kinetic analysis of the binding of human matrix metalloproteinase-2 and -9 to tissue inhibitor of metalloproteinase (TIMP)-1 and TIMP-2, J Biol Chem. 1997 Nov 21;272(47):29975-83). The methods employ Human rheumatoid synovial fibroblast (MMP-1) and Human recombinant (MMP-2 and MMP-3) and Human recombinant (E.coli) (MMP-7) as the MMP source. The substrate is Mca-Pro-Leu-Gly-Leu-Dpa-Ala-Arg-NH2. The enzymatic reaction is based on the conversion of Mca-Pro-Leu-Gly-Leu-Dpa-Ala-Arg to Mca-Pro-Leu-Gly + Leu-Dpa-Ala-Arg-NH2, where Mca-Pro-Leu-Gly is quantified using spectrofluorimetric quantitation. As reference compounds are employed TIMP-1 and TIMP-2. Such methods are commercially available at MDS Pharma Services.

The target of assay [2] is T2, MMP-2 (Homo sapiens, UniProt P08253).
T2 sequence (P08253 110-660): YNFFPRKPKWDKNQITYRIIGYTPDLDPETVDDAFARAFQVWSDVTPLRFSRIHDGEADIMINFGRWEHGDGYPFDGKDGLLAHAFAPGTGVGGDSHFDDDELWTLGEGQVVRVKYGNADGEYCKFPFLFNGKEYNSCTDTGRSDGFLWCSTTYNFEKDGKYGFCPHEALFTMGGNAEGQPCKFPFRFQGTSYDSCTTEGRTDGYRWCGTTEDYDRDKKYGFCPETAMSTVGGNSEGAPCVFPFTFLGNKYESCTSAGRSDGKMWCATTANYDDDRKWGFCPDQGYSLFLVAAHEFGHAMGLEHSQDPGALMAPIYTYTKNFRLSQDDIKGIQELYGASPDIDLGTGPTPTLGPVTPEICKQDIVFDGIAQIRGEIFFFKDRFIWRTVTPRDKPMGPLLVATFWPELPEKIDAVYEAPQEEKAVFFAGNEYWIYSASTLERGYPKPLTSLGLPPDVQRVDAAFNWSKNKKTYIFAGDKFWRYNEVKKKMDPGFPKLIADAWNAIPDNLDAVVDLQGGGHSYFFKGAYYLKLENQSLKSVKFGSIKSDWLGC
The assay is described as above. It counts as biochemical. As to conditions: concentration giving 50 % inhibition; Human recombinant MMP-2; read-out: Concentration of Pemirolast. As to the method: as §1, §2

Assay [3] addresses MMP-3 (Homo sapiens, UniProt P08254). The assay is described as above. To be noted: concentration giving 50 % inhibition; Human recombinant MMP-3; read-out: Concentration of Pemirolast. The format is biochemical. As to the method:
as §1, §2

Assay [4] deals with T3, MMP-7 (Homo sapiens, UniProt P09237).
T3 construct: host or cells: E. coli
T3 sequence (P09237 95-267): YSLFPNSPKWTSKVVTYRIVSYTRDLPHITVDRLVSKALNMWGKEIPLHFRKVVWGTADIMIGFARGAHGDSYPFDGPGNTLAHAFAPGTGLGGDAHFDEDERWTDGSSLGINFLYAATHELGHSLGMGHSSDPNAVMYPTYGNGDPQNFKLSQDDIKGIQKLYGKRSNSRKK
The assay is described as above. It counts as biochemical. To be noted: concentration giving 50 % inhibition; Human recombinant (E.coli) MMP-7; read-out: Concentration of Pemirolast. The procedure: as §1, §2

For assay [5], the system named is IL-1α. Put plainly: Cytokine production, LPS induced human PBMC. The format is cell-based. To be noted: statement in words only, no value given. As to the method:
(§3) The inhibition of Pemirolast on cytokine production was determined using the assay "LPS induced human PBMC".

In assay [6] the test system is TNF-α. Description: Cytokine production, LPS induced human PBMC. It counts as cell-based. As to conditions: concentration giving 50 % inhibition, read-out: Concentration of Pemirolast. The procedure:
as §3

In assay [7] the test system is arachidonic acid-induced ear-inflammation. Put plainly: Arachidonic acid-induced ear-inflammation test in mice. It counts as in vivo, female BALB/cA mice. As to conditions: intraperitoneally 30 minutes before arachidonic acid on the right ear. The procedure:
The anti-inflammatory potential of Pemirolast can be tested in "arachidonic acid-induced ear-inflammation test in mice", a commonly employed method for screening and evaluation of antiinflammatory drugs. Dexamethasone was employed as reference compound.
The study can be performed in female BALB/cA mice from M & B A/S, DK-8680 Ry. The test substances (various concentration of Pemirolast dissolved in aqueous solutions) and the reference compound are administered intraperitoneally in volumes of 20 ml per kg body weight 30 minutes before application of arachidonic acid to the ear. All groups are then treated with 20 µl arachidonic acid, 100 mg/ml in acetone, on the right ear. One hour after the application of arachidonic acid the mice are sacrificed, the ears cut from the tip with a punch biopsy knife (8 mm diameter) and weighed. Mean weights and standard deviations are calculated. Relative ear oedema is assessed as the weight difference between right and left ear of each mouse expressed as percent of the left ear. Percent inhibition of the relative ear oedema compared with the vehicle treated groups is calculated for the test substance and reference compound treated groups. […]

Assay [8] has as its system acne vulgaris. Put plainly: Case of treatment of acne vulgaris. The format is in vivo, person. From the text:
A person was suffering from acne vulgaris characterised by comedones and some inflammatory lesions. They had previously regularly used a 5% benzoyl peroxide cream to treat the condition. During a flare up of the condition they applied a 5.0% aqueous solution of Pemirolast (potassium salt) once daily for four weeks to the areas affected. […] The treatment was followed and assessed by a physician.

The mark [9] stands for this setting: person, 5.0% aqueous solution of Pemirolast (potassium salt) once daily for four weeks on affected areas.

The values below come from patent EP1818058A2, “TREATMENT OF MMP-MEDIATED DERMATOLOGICAL DISEASES WITH PEMIROLAST” (Astion Pharma A/S, priority 2006, dated 2007).

Sequence of MMP-3 (P08254 100-477): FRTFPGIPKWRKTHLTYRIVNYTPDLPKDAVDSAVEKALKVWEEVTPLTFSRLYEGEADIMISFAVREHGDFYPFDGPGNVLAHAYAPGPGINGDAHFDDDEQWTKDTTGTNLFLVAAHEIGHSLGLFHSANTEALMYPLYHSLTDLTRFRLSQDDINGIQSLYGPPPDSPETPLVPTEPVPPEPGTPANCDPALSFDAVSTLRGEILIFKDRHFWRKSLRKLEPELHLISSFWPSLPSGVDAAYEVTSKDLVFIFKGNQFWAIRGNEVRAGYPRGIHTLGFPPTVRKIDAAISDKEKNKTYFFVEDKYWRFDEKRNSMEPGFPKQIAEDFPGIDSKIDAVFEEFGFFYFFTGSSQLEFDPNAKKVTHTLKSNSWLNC

As for `Cc1cccn2c(=O)c(-c3nnn[nH]3)cnc12` [Pemirolast, 9-methyl-3-(1H-tetrazol-5-yl)-4H-pyrido[1,2-a]pyrimidin-4-one], the IC50 in assay [1] was determined as 18 µM; in assay [2] it was 25 µM; in assay [3], 32 µM; in assay [4], 32 µM; in assay [6], 100 µM. Moreover, in assay [5], the “inhibition of IL-1α” value is on record as “inhibits”. Moreover, in assay [7], the “inflammatory reaction in the arachidionic acid treated ear” value is on record as “significantly prevented the inflammatory reaction”. In addition, the “inflamed area surrounding the lesion” value in assay [8] (setting [9]) was “recessed without any noticeable scarring”. Further, the inflammatory lesions entry in assay [8] (setting [9]) is reported as “completely recessed”.
For the compound `O=C(OOC(=O)c1ccccc1)c1ccccc1` [benzoyl peroxide], the reddened inflamed area entry in assay [8] (same patient, usual previous treatment with 5% benzoyl peroxide cream) is recorded as “did not remove the reddened inflamed area”.
